Values after ≈ are worked out from the molar mass of the structure shown.
Legend:
[1] = tested on: SK-Hep-1 liver cancer cell line; experiment: MTT analysis, anticancer activity; type: cell-based, human; conditions: for IC50 SK-Hep-1: 48 hr
Protocol: (§1) To be specific, SK-Hep-1 cell, which is liver cancer cell line, was added to 96-well microplate (Falcon, USA) with the concentration of 3×10^5 cells/ml by 100 μl per well. Each extracted and separated substance dissolved in DMSO was added to the well by 100 μl for the final concentration to be from 50 μg/ml to 0.0244 μg/ml, with 200 μl of final volume. Each cell was cultured for 48 hr in a culture medium of 37° C. and 5% CO2. After cultivation, 20 μl of phosphate buffer solution containing 5 mg/ml of MTT (3-[4,5-dimethylthiazol-2-yl]-2,5-diphenyltetrazoliumbromide, Sigma Co.) reagent was added to each well, and then cultured for 4 hr. After taking 100 μl of supernant from each culture medium, 100 μl of 0.04N hydrochloric acid-isopropanol was added. After letting alone overnight, absorbance was measured at 560 nm using automatic Eliza detector (Molecular Divices Corp., USA). Anticancer activity of each extracted and separated substance was calculated from the absorbance value by Equation 1 and was expressed in terms of cell.
(§2) Average Existence Rate(%)=(Absorbance of Treated Group)/(Absorbance of Control Group)×100

[2] = tested on: PC-3 prostate cancer cell line; experiment: MTT analysis, anticancer activity; type: cell-based, human; conditions: 48 hr
Protocol: as §1, §2

[3] = tested on: DU-145 prostate cancer cell line; experiment: MTT analysis, anticancer activity; type: cell-based, human; conditions: 48 hr
Protocol: as §1, §2

[4] = tested on: BT-20; experiment: MTT analysis, anticancer activity; type: cell-based, human; conditions: 48 hr
[5] = tested on: BT-549; experiment: MTT analysis, anticancer activity; type: cell-based, human; conditions: 10 μg/ml sample
[6] = tested on: HS-578T; experiment: MTT analysis, anticancer activity; type: cell-based, human; conditions: 10 μg/ml sample
[7] = tested on: MCF-7; experiment: MTT analysis, anticancer activity; type: cell-based, human
[8] = tested on: SK-BR-3; experiment: MTT analysis, anticancer activity; type: cell-based, human; conditions: 48 hr
[9] = tested on: T-47D; experiment: MTT analysis, anticancer activity; type: cell-based, human; conditions: 48 hr
[10] = tested on: HeLa; experiment: MTT analysis, anticancer activity; type: cell-based, human; conditions: 48 hr
[11] = tested on: ME-180; experiment: MTT analysis, anticancer activity; type: cell-based, human; conditions: 10 μg/ml sample
[12] = tested on: HT-29; experiment: MTT analysis, anticancer activity; type: cell-based, human; conditions: 10 μg/ml sample
[13] = tested on: LoVo; experiment: MTT analysis, anticancer activity; type: cell-based, human; conditions: 10 μg/ml sample
[14] = tested on: SK-N-SH; experiment: MTT analysis, anticancer activity; type: cell-based, human; conditions: 48 hr
[15] = tested on: T98G; experiment: MTT analysis, anticancer activity; type: cell-based, human; conditions: 48 hr
[16] = tested on: HS-746T; experiment: MTT analysis, anticancer activity; type: cell-based, human; conditions: 10 μg/ml sample
[17] = tested on: KATO-III; experiment: MTT analysis, anticancer activity; type: cell-based, human
[18] = tested on: A431; experiment: MTT analysis, anticancer activity; type: cell-based, human; conditions: 48 hr
[19] = tested on: Hep-2; experiment: MTT analysis, anticancer activity; type: cell-based, human
[20] = tested on: HT1080; experiment: MTT analysis, anticancer activity; type: cell-based, human; conditions: 48 hr
[21] = tested on: NCI-H69; experiment: MTT analysis, anticancer activity; type: cell-based, human; conditions: 10 μg/ml sample
[22] = tested on: SK-MEL-28; experiment: MTT analysis, anticancer activity; type: cell-based, human; conditions: 48 hr
[23] = tested on: SK-OV-3; experiment: MTT analysis, anticancer activity; type: cell-based, human; conditions: 10 μg/ml sample
[24] = tested on: HS683; experiment: MTT analysis, anticancer activity; type: cell-based, human; conditions: 48 hr
[25] = tested on: 293; experiment: MTT analysis, cytotoxicity against normal cell line; type: cell-based, human; conditions: 10 μg/ml sample
[26] = tested on: 3T3-L1; experiment: as above; type: cell-based, mouse; conditions: 10 μg/ml sample
[27] = tested on: CHO; experiment: as above; type: cell-based, Chinese hamster; conditions: 10 μg/ml sample
[28] = tested on: CPAE; experiment: as above; type: cell-based, bovine; conditions: 10 μg/ml sample
[29] = tested on: HS27; experiment: as above; type: cell-based, human; conditions: 10 μg/ml sample
[30] = tested on: NIH-3T3; experiment: as above; type: cell-based, mouse; conditions: 10 μg/ml sample
[31] = Solubility; type: physicochemical

## O=c1[nH]cc(F)c(=O)[nH]1 [5-FU, 5-fluorouracil]
[1]; Homo sapiens, SK-HEP1, 48 hr
  IC50: > 50 µg/mL

## COc1ccc(C(O)C(C)Oc2ccc(C3OC(c4ccc(OC(C)[C@@H](O)c5ccc(OC)c(OC)c5)c(OC)c4)C(C)C3C)cc2OC)cc1OC (single isomer, unassigned) [HNP-98701B]
[1]
  IC50 SK-Hep-1: 0.0388 µg/mL (≈ 0.0529 µM)
[2]
  IC50 PC-3: 0.0695 µg/mL (≈ 0.0948 µM)
[3]
  IC50 DU-145: 0.0184 µg/mL (≈ 0.0251 µM)
[4]
  IC50 BT-20: 0.0292 µg/mL (≈ 0.0398 µM)
[5]
  Existence rate class, BT-549 (in IC50 table): * (Existence rate larger than 60% for 10 μg/ml sample)
[6]
  Existence rate class, HS-578T (in IC50 table): N.E. (Not effective; existence rate larger than 90% for 10 μg/ml sample)
[7]; MTT, 48 hr
  IC50 MCF-7: >10 µg/mL
[8]
  IC50 SK-BR-3: 0.0866 µg/mL (≈ 0.118 µM)
[9]
  IC50 T-47D: 0.0167 µg/mL (≈ 0.0228 µM)
[10]
  IC50 HeLa: 0.1680 µg/mL (≈ 0.229 µM)
[11]
  Existence rate class, ME-180 (in IC50 table): * (Existence rate larger than 60% for 10 μg/ml sample)
[12]
  Existence rate class, HT-29 (in IC50 table): * (Existence rate larger than 60% for 10 μg/ml sample)
[13]
  Existence rate class, LoVo (in IC50 table): * (Existence rate larger than 60% for 10 μg/ml sample)
[14]
  IC50 SK-N-SH: 0.4314 µg/mL (≈ 0.589 µM)
[15]
  IC50 T98G: 0.1003 µg/mL (≈ 0.137 µM)
[16]
  Existence rate class, HS-746T (in IC50 table): * (Existence rate larger than 60% for 10 μg/ml sample)
[17]; MTT, 48 hr
  IC50 KATO-III: 0.4477 µg/mL (≈ 0.611 µM)
[18]
  IC50 A431: 0.2344 µg/mL (≈ 0.32 µM)
[19]; MTT, 48 hr
  IC50 Hep-2: 0.0329 µg/mL (≈ 0.0449 µM)
[20]
  IC50 HT1080: 0.1882 µg/mL (≈ 0.257 µM)
[21]
  Existence rate class, NCI-H69 (in IC50 table): * (Existence rate larger than 60% for 10 μg/ml sample)
[22]
  IC50 SK-MEL-28: 0.1123 µg/mL (≈ 0.153 µM)
[23]
  Existence rate class, SK-OV-3 (in IC50 table): N.E. (Not effective; existence rate larger than 90% for 10 μg/ml sample)
[24]
  IC50 HS683: 0.2325 µg/mL (≈ 0.317 µM)
[25]
  Existence rate class, 293 (in IC50 table): * (Existence rate larger than 60% for 10 μg/ml sample)
[26]
  Existence rate class, 3T3-L1 (in IC50 table): N.E. (Not effective; existence rate larger than 90% for 10 μg/ml sample)
[27]
  Existence rate class, CHO (in IC50 table): * (Existence rate larger than 60% for 10 μg/ml sample)
[28]
  Existence rate class, CPAE (in IC50 table): * (Existence rate larger than 60% for 10 μg/ml sample)
[29]
  Existence rate class, HS27 (in IC50 table): N.E. (Not effective; existence rate larger than 90% for 10 μg/ml sample)
[30]
  Existence rate class, NIH-3T3 (in IC50 table): N.E. (Not effective; existence rate larger than 90% for 10 μg/ml sample)
[31]
  Solubility in methanol, ethanol, ethyl acetate, chloroform and dimethylsulfoxide (DMSO): highly soluble
  Solubility in water, acetone, ether and hexane: insoluble

## COc1ccc(C(O)C(C)Oc2ccc(C3OC(c4ccc(OC(C)[C@@H](O)c5ccc(OC)c(OC)c5)c(OC)c4)C(C)C3C)cc2OC)cc1OC (single isomer, unassigned) [HNP-98701A, epi-manassantin A]
[1]
  IC50 SK-Hep-1: 0.0795 µg/mL (≈ 0.108 µM)
[2]
  IC50 PC-3: 0.1249 µg/mL (≈ 0.17 µM)
[3]
  IC50 DU-145: 0.0537 µg/mL (≈ 0.0733 µM)
[4]
  IC50 BT-20: 0.0996 µg/mL (≈ 0.136 µM)
[5]
  Existence rate class, BT-549 (in IC50 table): *^a (Existence rate larger than 60% for 10 μg/ml sample)
[6]
  Existence rate class, HS-578T (in IC50 table): N.E.^b (Not effective; existence rate larger than 90% for 10 μg/ml sample)
[7]; Homo sapiens, MCF7, 48 h, read-out: IC50 MCF-7
  IC50: > 10 µg/mL
[8]
  IC50 SK-BR-3: 0.1698 µg/mL (≈ 0.232 µM)
[9]
  IC50 T-47D: 0.0400 µg/mL (≈ 0.0546 µM)
[10]
  IC50 HeLa: 0.4233 µg/mL (≈ 0.578 µM)
[11]
  Existence rate class, ME-180 (in IC50 table): * (Existence rate larger than 60% for 10 μg/ml sample)
[12]
  Existence rate class, HT-29 (in IC50 table): * (Existence rate larger than 60% for 10 μg/ml sample)
[13]
  Existence rate class, LoVo (in IC50 table): * (Existence rate larger than 60% for 10 μg/ml sample)
[14]
  IC50 SK-N-SH: 1.2849 µg/mL (≈ 1.75 µM)
[15]
  IC50 T98G: 0.2470 µg/mL (≈ 0.337 µM)
[16]
  Existence rate class, HS-746T (in IC50 table): * (Existence rate larger than 60% for 10 μg/ml sample)
[17]; Homo sapiens, KATO III, 48 h, read-out: IC50 KATO-III, MTT, 48 hr
  IC50: 0.617 µg/mL (≈ 0.842 µM)
[18]
  IC50 A431: 0.4903 µg/mL (≈ 0.669 µM)
[19]; Homo sapiens, HEp-2, 48 h, read-out: IC50 Hep-2, MTT, 48 hr
  IC50: 0.0406 µg/mL (≈ 0.0554 µM)
[20]
  IC50 HT1080: 0.4267 µg/mL (≈ 0.582 µM)
[21]
  Existence rate class, NCI-H69 (in IC50 table): * (Existence rate larger than 60% for 10 μg/ml sample)
[22]
  IC50 SK-MEL-28: 0.2544 µg/mL (≈ 0.347 µM)
[23]
  Existence rate class, SK-OV-3 (in IC50 table): N.E. (Not effective; existence rate larger than 90% for 10 μg/ml sample)
[24]
  IC50 HS683: 0.5561 µg/mL (≈ 0.759 µM)
[25]
  Existence rate class, 293 (in IC50 table): *^a (Existence rate larger than 60% for 10 μg/ml sample)
[26]
  Existence rate class, 3T3-L1 (in IC50 table): N.E.^b (Not effective; existence rate larger than 90% for 10 μg/ml sample)
[27]
  Existence rate class, CHO (in IC50 table): * (Existence rate larger than 60% for 10 μg/ml sample)
[28]
  Existence rate class, CPAE (in IC50 table): * (Existence rate larger than 60% for 10 μg/ml sample)
[29]
  Existence rate class, HS27 (in IC50 table): N.E. (Not effective; existence rate larger than 90% for 10 μg/ml sample)
[30]
  Existence rate class, NIH-3T3 (in IC50 table): N.E. (Not effective; existence rate larger than 90% for 10 μg/ml sample)
[31]
  Solubility in methanol, ethanol, ethyl acetate, chloroform and dimethylsulfoxide (DMSO): highly soluble
  Solubility in water, acetone, ether and hexane: insoluble

Reference: US20040024055A1, “Pharmaceutical composition containing the exract of saururus chinensis baill useful as an anticancer agent and a process for the preparation thereof” (priority 2000, published 2004)
